Results published in patent US9738902B2, “Modified PYR/PYL receptors activated by ligands” (priority 2013, dated 2017).

Tests used:
PYR1 K59R F159L = biological target: T1, PYR1 K59R F159L (Arabidopsis thaliana, UniProt O49686, F159L/K59R); experiment: Y2H Pocket Library Screen (HAB1, X-gal); type: cell-based
T1 construct: expressed in transfected cells; host or cells: S. cerevisiae Y190
Description: (§1) The set of 475 mutant plasmids were individually transformed into the Y190 yeast two hybrid reporter strain co-transformed with pACT-HAB1, as previously described (Park et al., 2009). The yeast strains generated were arrayed into 96-well plates yielding what we refer to as the “pocket library”. The pocket library strains were spotted onto agar plates containing selective synthetic dextrose (minus Leu & Trp) medium that was supplemented with a single test compound at 100 μM. The pocket library strains were separately tested for responsiveness to the following compounds: dichlobenil, benzothiadiazole, mandipropamid, fludioxonil, and benoxacor. After incubating test plates at 30° C. for two days, colonies were chloroform lysed and stained to reveal β-galactosidase expression levels, using previously described methods (Park et al., 2009). Mutants displaying responsiveness to the test compound, if present, were identified by virtue of X-gal staining and then subjected to subsequent optimization efforts. Using this approach we identified mutations that conferred detectable sensitivity to the compounds tested (see entries labeled “Pocket Library Screens” in Table 1).

PYR1 K59R F159V = biological target: T2, PYR1 K59R F159V (Arabidopsis thaliana, UniProt O49686, F159V/K59R); experiment: Y2H Pocket Library Screen (HAB1, X-gal); type: cell-based
T2 construct: expressed in transfected cells; host or cells: S. cerevisiae Y190
Description: as §1

PYR1 K59R F108E = biological target: T3, PYR1 K59R F108E (Arabidopsis thaliana, UniProt O49686, F108E/K59R); experiment: Y2H Pocket Library Screen (HAB1, X-gal); type: cell-based
T3 construct: expressed in transfected cells; host or cells: S. cerevisiae Y190 yeast two-hybrid reporter strain
Description: as §1

PYR1 K59R F159I = biological target: T4, PYR1 K59R F159I (Arabidopsis thaliana, UniProt O49686, F159I/K59R); experiment: Y2H Pocket Library Screen (HAB1, X-gal); type: cell-based
T4 construct: expressed in transfected cells; host or cells: S. cerevisiae Y190 two-hybrid reporter strain
Description: as §1

wild type = experiment: root growth inhibition assay; type: in vivo, Arabidopsis; conditions: 72 hours after transfer
Excerpt: (§2) Given the relatively high mandipropamid sensitivity of the MDP1 and MDP2 transgenic lines, these lines were subjected to further physiological characterization. One of ABA's physiological effects is to inhibit root growth. Mandipropamid should therefore inhibit root growth in the MDP1 and MDP2 transgenic lines, but not wild type, if it is successfully activating this ABA response. To test this, seeds of the wild type, PYR1-OX, MDP1 and MDP2 genotypes were surface sterilized in bleach and plated on to 0.7% agar petri plates containing ½ MS salts and 0.5% sucrose. After 4 days of stratification at 4° C., the plates were transferred to a growth chamber operating on a 16-hour day length cycle and allowed to germinate for 24 hours and then transferred to petri plates (0.7% agar containing ½ MS salts and 0.5% sucrose) supplemented with differing concentrations of mandipropamid. These plates were then grown vertically in a growth chamber operating on a 16-hour day length cycle. The amount of root growth after transfer was measured 72-hours later after transfer.

PYR1-OX = experiment: root growth inhibition assay; type: in vivo, Arabidopsis; conditions: 72 hours after transfer
Excerpt: as §2

[1] = system: MDP1 and MDP2 transgenic genotypes; experiment: root growth inhibition assay; type: in vivo, Arabidopsis; conditions: MDP1 and MDP2, 72 hours after transfer
Excerpt: as §2

[2] = biological target: T5, GST-HAB1 in the presence of PYR1^MANDI (Arabidopsis thaliana, UniProt O49686, F108A/F159L/K59R/S122G/V81I/Y58H); experiment: PP2C activity assay (pNPP); type: biochemical; conditions: PYR1^MANDI 1200 nM, PP2C 600 nM
T5 construct: 6×-His (N); made in house; host or cells: BL21[DE3]pLysS E. coli (receptor)
Excerpt: (§3) One possibility in any functional screen conducted in a heterologous organism such as S. cerevisiae is that mutants identified may only work in the context of the heterologous expression system. We therefore examined whether recombinant PYR1^K59R,F108A,S122G and PYR1^MANDI proteins inhibit PP2C activity in vitro, as is well documented for wild type PYR1 in response to ABA (Park et al., 2009). Both receptors were cloned into pET28 to generate 6×-His (SEQ ID NO:109) tagged receptors. These were expressed in BL21[DE3]pLysS E. coli host cells at 18° C. overnight. 6×-His-fusion proteins were purified from sonicated lysates using Ni-NTA agarose (Qiagen, USA), according to the manufacturer's instructions. For PP2C assays, recombinant GST-HAB1 and GST-ABI2 were expressed and purified as described previously (Park et al., 2009) and PP2C activity assayed conducted using the colorimetric phosphatase substrate para-nitrophenyl phosphate (pNPP) as previously described (Park et al., 2009). PP2C assays were conducted using 600 nM of PP2C and 1200 nM recombinant receptors. […] We note that these mutant receptors cannot respond to ABA due to the K59R mutation they contain, which abolishes ABA responsiveness.

[3] = biological target: T6, GST-ABI2 in the presence of PYR1^MANDI (Arabidopsis thaliana, UniProt O49686, F108A/F159L/K59R/S122G/V81I/Y58H); experiment: PP2C activity assay (pNPP); type: biochemical; conditions: PYR1^MANDI 1200 nM, PP2C 600 nM
T6 construct: 6×-His (N); made in house; host or cells: BL21[DE3]pLysS E. coli (receptor)
Excerpt: as §3

[4] = biological target: T7, GST-ABI2 in the presence of PYR1^K59R,F108A,S122G (Arabidopsis thaliana, UniProt O49686, F108A/K59R/S122G); experiment: PP2C activity assay (pNPP); type: biochemical; conditions: PYR1^K59R,F108A,S122G 1200 nM, PP2C 600 nM
T7 construct: 6x-His; made in house; host or cells: E. coli BL21[DE3]pLysS (receptor)
Excerpt: as §3

[5] = biological target: T8, GST-HAB1 in the presence of PYR1^K59R,F108A,S122G (Arabidopsis thaliana, UniProt O49686, F108A/K59R/S122G); experiment: PP2C activity assay (pNPP); type: biochemical; conditions: PYR1^K59R,F108A,S122G 1200 nM, PP2C 600 nM
T8 construct: 6x-His; made in house; host or cells: E. coli BL21[DE3]pLysS (receptor)
Excerpt: as §3

T4 sequence (O49686 whole entry K59R/F159I): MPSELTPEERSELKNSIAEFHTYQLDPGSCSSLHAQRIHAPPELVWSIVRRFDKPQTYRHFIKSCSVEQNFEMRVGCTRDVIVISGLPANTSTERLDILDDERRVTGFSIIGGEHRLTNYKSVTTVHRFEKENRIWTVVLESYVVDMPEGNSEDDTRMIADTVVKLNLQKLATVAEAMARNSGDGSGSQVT
T4 sequence (Q9CAJ0 23-511, further chain): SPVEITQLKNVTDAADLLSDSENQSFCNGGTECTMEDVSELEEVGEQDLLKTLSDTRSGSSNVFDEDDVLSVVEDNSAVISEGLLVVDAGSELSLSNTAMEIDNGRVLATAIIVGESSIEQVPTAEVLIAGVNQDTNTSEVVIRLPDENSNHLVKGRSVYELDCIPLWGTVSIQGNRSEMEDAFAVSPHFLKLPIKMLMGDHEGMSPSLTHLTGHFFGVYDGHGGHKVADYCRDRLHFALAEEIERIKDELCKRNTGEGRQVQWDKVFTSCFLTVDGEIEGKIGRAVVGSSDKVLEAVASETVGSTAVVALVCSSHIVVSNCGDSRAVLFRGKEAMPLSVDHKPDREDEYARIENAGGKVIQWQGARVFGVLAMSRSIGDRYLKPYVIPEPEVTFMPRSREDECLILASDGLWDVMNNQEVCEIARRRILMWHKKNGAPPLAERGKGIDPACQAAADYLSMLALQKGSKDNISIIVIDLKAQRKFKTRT
T3 sequence (O49686 whole entry K59R/F108E): as the sequence (O49686 whole entry K59R/F159I) above, with F108E, I159F counted along it
T3 sequence (Q9CAJ0 23-511 partner): as the sequence (Q9CAJ0 23-511, further chain) above
T1 sequence (O49686 whole entry K59R/F159L): as the sequence (O49686 whole entry K59R/F159I) above, with I159L counted along it
T1 sequence (Q9CAJ0 23-511, further chain): as the sequence (Q9CAJ0 23-511, further chain) above
T2 sequence (O49686 whole entry K59R/F159V): as the sequence (O49686 whole entry K59R/F159I) above, with I159V counted along it
T2 sequence (Q9CAJ0 23-511, further chain): as the sequence (Q9CAJ0 23-511, further chain) above
T6 sequence (O49686 whole entry Y58H/K59R/V81I/F108A/S122G/F159L): as the sequence (O49686 whole entry K59R/F159I) above, with Y58H, V81I, F108A, S122G, I159L counted along it
T6 sequence (O04719 whole entry partner): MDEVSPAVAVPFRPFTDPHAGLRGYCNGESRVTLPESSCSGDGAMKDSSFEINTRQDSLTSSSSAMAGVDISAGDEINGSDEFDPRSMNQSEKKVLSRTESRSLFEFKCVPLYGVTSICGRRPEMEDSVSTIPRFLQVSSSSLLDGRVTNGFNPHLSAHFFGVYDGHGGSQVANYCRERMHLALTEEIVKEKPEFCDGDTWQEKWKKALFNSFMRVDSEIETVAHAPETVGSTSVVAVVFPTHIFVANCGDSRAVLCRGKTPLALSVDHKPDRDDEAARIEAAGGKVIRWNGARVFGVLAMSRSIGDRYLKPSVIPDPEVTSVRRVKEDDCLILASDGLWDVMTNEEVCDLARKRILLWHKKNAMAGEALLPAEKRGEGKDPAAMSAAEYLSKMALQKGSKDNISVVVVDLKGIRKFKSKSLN
T5 sequence (O49686 whole entry Y58H/K59R/V81I/F108A/S122G/F159L): as the sequence (O49686 whole entry K59R/F159I) above, with Y58H, V81I, F108A, S122G, I159L counted along it
T5 sequence (Q9CAJ0 23-511 partner): as the sequence (Q9CAJ0 23-511, further chain) above
T8 sequence (O49686 whole entry K59R/F108A/S122G): as the sequence (O49686 whole entry K59R/F159I) above, with F108A, S122G, I159F counted along it
T8 sequence (Q9CAJ0 23-511 partner): as the sequence (Q9CAJ0 23-511, further chain) above
T7 sequence (O49686 whole entry K59R/F108A/S122G): as the sequence (O49686 whole entry K59R/F159I) above, with F108A, S122G, I159F counted along it
T7 sequence (O04719 whole entry partner): as the sequence (O04719 whole entry partner) above

SMILES | Threshold (PYR1 K59R F159L) [µM] | Threshold (PYR1 K59R F159V) [µM] | Threshold (PYR1 K59R F108E) [µM] | Threshold (PYR1 K59R F159I) [µM] | root growth (wild type) | root growth (PYR1-OX) | root growth [1] | inhibition of HAB1 PP2C activity [2] | inhibition of ABI2 PP2C activity [3] | inhibition of ABI2 PP2C activity [4] | inhibition of HAB1 PP2C activity [5]
N#Cc1c(Cl)cccc1Cl [Dichlobenil, dichlobenil] | 100 | 100 | 100 | 100 |  |  |  |  |  |  | 
C#CCOc1ccc(CCNC(=O)C(OCC#C)c2ccc(Cl)cc2)cc1OC (stereo not drawn) [Mandipropamid, mandipropamid] | 100 | 100 | 100 | 100 | negligible inhibition | negligible inhibition | inhibited | saturable inhibition | saturable inhibition | saturable inhibition | saturable inhibition
